Paper PMC7238188, “Recombinant Peptide Production Platform Coupled with Site-Specific Albumin Conjugation Enables a Convenient Production of Long-Acting Therapeutic Peptide” (Pharmaceutics, 2020)

Columns and labels:
[1] = K34R mutant; cited from earlier work
C57BL/6J mice = assay: In vivo intraperitoneal glucose tolerance test (IPGTT); details: C57BL/6J male mice, 100 nmol/kg subcutaneous 1 h before glucose 1.5 g/kg i.p., 0-120 min, n = 6
Description: We performed in vivo intraperitoneal glucose tolerance tests (IPGTTs) on seven-week-old male C57BL/6J mice, which we purchased from DBL. The mice were randomly divided into five groups (n = 6). The IPGTTs were performed after glucose (1.5 g/kg dose) had been intraperitoneally administered to C57BL/6J male mice that had been fasted for 3 h. We obtained blood samples from the tail of each mouse at the predetermined time using an Accu-Check Guide (Roche Diabetes Care, Indianapolis, IN, USA).

[2] = target: human GLP-1 receptor (GLP-1R) overexpressed on HEK-293 cells (human) (UniProt P43220)
human GLP-1 receptor (GLP-1R) overexpressed on HEK-293 cells (human), sequence (P43220 24-463): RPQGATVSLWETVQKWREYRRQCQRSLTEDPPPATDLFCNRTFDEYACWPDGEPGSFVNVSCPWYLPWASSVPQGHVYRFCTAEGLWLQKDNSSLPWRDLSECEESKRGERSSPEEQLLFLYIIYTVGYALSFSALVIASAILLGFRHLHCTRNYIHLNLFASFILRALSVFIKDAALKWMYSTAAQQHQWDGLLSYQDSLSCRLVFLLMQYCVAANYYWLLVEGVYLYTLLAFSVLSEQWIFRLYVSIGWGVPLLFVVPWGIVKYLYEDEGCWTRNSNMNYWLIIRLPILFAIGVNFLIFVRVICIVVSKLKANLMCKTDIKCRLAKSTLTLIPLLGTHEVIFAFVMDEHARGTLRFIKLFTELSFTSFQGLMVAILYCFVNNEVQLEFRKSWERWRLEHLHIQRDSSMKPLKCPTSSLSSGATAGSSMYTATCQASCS

**Q.** What does the source list for CC[C@H](C)[C@H](NC(=O)[C@H](Cc1ccccc1)NC(=O)[C@H](CCC(=O)O)NC(=O)[C@H](CCCCN)NC(=O)[C@H](C)NC(=O)[C@H](C)NC(=O)[C@H](CCC(N)=O)NC(=O)CNC(=O)[C@H](CCC(=O)O)NC(=O)[C@H](CC(C)C)NC(=O)[C@H](Cc1ccc(O)cc1)NC(=O)[C@H](CO)NC(=O)[C@H](CO)NC(=O)[C@@H](NC(=O)[C@H](CC(=O)O)NC(=O)[C@H](CO)NC(=O)[C@@H](NC(=O)[C@H](Cc1ccccc1)NC(=O)[C@@H](NC(=O)CNC(=O)[C@H](CCC(=O)O)NC(=O)[C@H](C)NC(=O)[C@@H](N)Cc1c[nH]cn1)[C@@H](C)O)[C@@H](C)O)C(C)C)C(=O)N[C@@H](C)C(=O)N[C@@H](Cc1c[nH]c2ccccc12)C(=O)N[C@@H](CC(C)C)C(=O)N[C@H](C(=O)N[C@@H](CCCNC(=N)N)C(=O)NCC(=O)N[C@@H](CCCNC(=N)N)C(=O)NCC(=O)O)C(C)C [GLP1_C]?
**A.** biological activity compared with wild-type GLP-1 [1]: comparable biological activity to that of wild-type GLP-1; blood glucose profile / blood glucose levels in IPGTT (C57BL/6J mice): very similar to that of the negative control group

**Q.** Which EC50 of cAMP production in HEK-293 cells overexpressing GLP-1R [2] does the source give for “GLP1_16HSA (GLP-1 variant conjugated to human serum albumin at position 16) (from UniProt P02768 25-609)” here?
**A.** Its EC50 of cAMP production in HEK-293 cells overexpressing GLP-1R is 700 nM.
